Source: patent publication US20260234196A1 (priority 2021, published 2026)
Ends that are not written are not given here. Peptide text beside a SMILES is read from it.

Tests used:
[1] = system: 293T-ACE2^+ cells; experiment: Cytotoxicity by CCK-8 in 293T-ACE2^+ cells; format: cell-based, human; conditions: 1 nM to 100 μM, 48 h; FIGS. 9A-9C, 10A-10C
Protocol: ; • (3) The cells were washed once with PBS after discarding supernatant after culturing, 120 μL of cell counting kit-8 (CCK-8) working solution (CCK-8 working solution is obtained by mixing CCK8 stock solution and complete medium in a volume ratio of 1:10, CCK8 stock solution was purchased from Dojindo Molecular Technologies) was added to each well. After mixing, the system was incubated at 37° C. for 3 h, then the absorbance values at 450 nm and 630 nm (reference wavelength) were detected to calculate the cell viability.

[2] = target: spike protein of the SARS-CoV-2 pseudovirus (PSV) (SARS-CoV-2), P0DTC2; experiment: cell-based or functional assay

| Molecule | effect on 293T-ACE2^+ cells viability (CCK-8) [1] | neutralization ability to SARS-CoV-2 pseudovirus [2] |
| --- | --- | --- |
| GDGVYYPRDVFDSSVLDSTQR [KVp-N1N] | not significant | – |
| CC(C)C[C@H](NC(=O)[C@@H](NC(=O)[C@H](CO)NC(=O)[C@H](CO)NC(=O)[C@H](CC(=O)O)NC(=O)[C@H](Cc1ccccc1)NC(=O)[C@@H](NC(=O)[C@H](CC(=O)O)NC(=O)[C@H](CCCNC(=N)N)NC(=O)[C@@H]1CCCN1C(=O)[C@H](Cc1ccc(O)cc1)NC(=O)[C@H](Cc1ccc(O)cc1)NC(=O)[C@@H](NC(=O)CNC(=O)[C@H](CC(=O)O)NC(=O)CNC(=O)[C@@H]1CCCN1C(=O)[C@@H]1CCCN1C(=O)[C@@H]1CCCN1C(=O)[C@@H]1CCCN1C(=O)[C@H](CS)NC(=O)[C@@H](N)CS)C(C)C)C(C)C)C(C)C)C(=O)N[C@@H](CC(=O)O)C(=O)N[C@@H](CO)C(=O)N[C@H](C(=O)N[C@@H](CCC(N)=O)C(=O)N[C@@H](CCCNC(=N)N)C(=O)O)[C@@H](C)O [KVp-N1] (H-CCPPPPGDGVYYPRDVFDSSVLDSTQR-OH) | not significant | – |
| CC[C@H](C)[C@H](NC(=O)[C@H](CCCNC(=N)N)NC(=O)[C@H](CC(=O)O)NC(=O)[C@H](CCCNC(=N)N)NC(=O)[C@H](Cc1ccccc1)NC(=O)[C@@H]1CCCN1C(=O)[C@H](CC(=O)O)NC(=O)[C@H](CC(C)C)NC(=O)[C@H](CC(N)=O)NC(=O)[C@H](CO)NC(=O)[C@H](CC(=O)O)NC(=O)[C@H](CC(=O)O)NC(=O)[C@H](Cc1ccccc1)NC(=O)[C@H](CC(C)C)NC(=O)[C@H](CC(=O)O)NC(=O)CNC(=O)[C@@H]1CCCN1C(=O)[C@@H]1CCCN1C(=O)[C@@H]1CCCN1C(=O)[C@@H]1CCCN1C(=O)[C@H](CS)NC(=O)[C@@H](N)CS)C(=O)N[C@@H](CO)C(=O)N[C@H](C(=O)N[C@@H](CCCNC(=N)N)C(=O)N[C@@H](CCCNC(=N)N)C(=O)O)[C@@H](C)O [KVp-R14] (H-CCPPPPGDLFDDSNLDPFRDRISTRR-OH) | not significant | – |
| GDLFDDSNLDPFRDRISTRR [KVp-R14N] | not significant | – |
| CCPPPPGDLFDDSNLDPFRDRISTRR (modifications not checked) [polypeptide KVp-R14] | – | 50% |
| CCPPPPGDGVYYPRDVFDSSVLDSTQR (modifications not checked) [polypeptide KVp-N1] | – | 50% |
